System: artificial tissue
Assay: Contraction type classification (single/double) of contractile force waveforms of artificial tissue under baseline and perturbed conditions (FIG. 27)
Format: cell-based
Conditions: functional response = contractile force; first and second (increasing) dose of isoproterenol vs reference/control conditions; shown most clearly at the second dose
Text: The waveforms comprise functional responses (contractile force) of an artificial tissue under baseline conditions and two perturbed conditions. Examples of perturbed conditions are treatment of a tissue with a drug or compound, different cell lines, different disease states, physical perturbation of the artificial tissue, changes made to the platform or bioreactor containing the artificial tissue, and the like. The baseline waveform 2702, the first perturbed waveform 2704, and the second perturbed waveform 2706 are associated with a baseline classification vector 2708, a first perturbed classification vector 2710, and a second perturbed classification vector 2712 respectively. […]
The classification vectors (e.g., the baseline classification vector 2708) are obtained by extracting a plurality of functional response waveforms from each waveform (as described in more detail below in relation to FIG. 33) and then determining a contraction type for each functional response waveform using a prediction model (e.g., the prediction model 600 described above in relation to FIGS. 6 and 7). […] In contrast, the third classification value 2720 is a double contraction type (as indicated by the dark gray shading) because the associated functional response waveform 2724 is determined by the prediction model to contain a double contraction. […]

CC(C)NCC(O)c1ccc(O)c(O)c1 (stereo not shown) [isoproterenol]
contraction type classification vector of the perturbed waveforms compared to the baseline classification vector: induces regular double contractions of the artificial tissue

Reference: patent US20260266798A1, “SYSTEMS AND METHODS REGARDING PEAK EXPLORATION AND ARTIFICIAL TISSUE RESPONSE INCLUDING FOR CONTRACTION TYPE CLASSIFICATION OF ENGINEERED TISSUE” (VALO HEALTH, INC., priority 2023, published 2026)
